Laboratory results taken from patent publication US9616089B2, “Polymeric synthetic antidote” (Universite de Liege, priority 2013, dated 2017).

What was measured:
UFH [1] = test: Dose-response curve for UFH neutralization in human blood plasma, aPTT bioassay; assay type: biochemical; details: UFH 2 μg/mL in plasma, polymer 1 to 3 μg/mL
Description: In view to assess a possible difference in affinity between polymers of formula (I) and heparin versus protamine/heparin, dose-response curves were established, corresponding to a progressive titration of heparin action by increasing concentration of the polymers of formula (I) with aPPT bioassay (FIG. 5). This in vitro study was conducted adopting a fixed plasma concentration of UFH of 2 μg/mL added before the incubation with the polymers of formula (I). The concentration of the polymers of formula (I) was varied from 1 to 3 μg/mL. The mean and standard deviations (SD) were calculated from two independent experiments performed on senior blood donors.

UFH [2] = test: Neutralization of UFH in human plasma, aPTT test; assay type: biochemical; details: for percentage of neutralization of UFH, mean: antidote 2 μg/mL, plasma spiked with UFH 2 μg/mL, 15 min 37°C
Description: (§1) Activated partial thromboplastin time (aPTT) and anti-Xa activity were measured on the freshly isolated plasma using respectively a coagulometer (BCT; Dade Behring—Siemens) and a Microplate reader (Anthos HT3, type 12600). STA-C.K. Prest*2 kit was used. Coatest kit was used to evaluate the concentration of low molecular weight heparin in blood plasma following the reactions depicted below: LMW Heparin+AT→[LMW Heparin·AT] [LMW Heparin·AT]+FXa(excess)→[LMW Heparin·AT·FXa] 2a. S-2222+FXa→Peptide+pNA (yellow)+FXa(residual) 2b.
All PECs were prepared by addition of 100 μL of heparin (10 μg/mL) to 300 μL of plasma. After a pre-incubation of 5 minutes at 37° C., 100 μL of a stock solution of polymers of formula (I) (10 μg/mL) was added to neutralize heparin. After 15 minutes of interaction 37° C. the aPTT analysis was performed. Anti Xa analysis was evaluated according to a similar procedure, except for the final concentrations of heparin and polymer of formula (I) which were […].
In view to assess the pharmacological activity of the polymers of formula (I) to neutralize the action of UFH, polymers of formula (I) were incubated in normal human plasma previously spiked with heparin, analysing afterwards the remaining coagulation activity of plasma using the activated partial thromboplastin time (aPTT) test. This bioassay was indeed typically used to analyse the functionality of the intrinsic pathway of the blood coagulation, using kaolin as synthetic activator of the coagulation. An incubation of 15 min at 37° C. was respected before measuring the aPPT test. The percentage of heparin neutralization in plasma (FIG. 4) was calculated using two different calibration curves of heparin in function of the group age of the donors. Indeed a difference in heparin sensitivity was noticed with aPPT test as a function of the range of age of human donors. Accordingly, two calibration curves of heparin were used, corresponding to the two categories of blood donors: group 1 (average age: 22 years) and group 2 (average age: 52 years).

UFH [3] = test: Neutralization of UFH in human plasma measuring factor Xa (chromogenic Coatest Heparin); assay type: biochemical; details: UFH and antidote 0.4 μg/mL, human plasma 15 min 37°C
Description: as §1
Where FXa represents factor Xa and S-2222 represents Bz-Ile-Glu-(γ-OR)-Gly-Arg-pNA (CA: 59068-47-2) (SEQ ID No. 1), a chromogenic substrate cleaved by free FXa to peptide (Bz-Ile-Glu-(γ-OR)-Gly-Arg (SEQ ID No. 2)) and pNA (p-nitroaniline). AT represents antithrombin. Heparin binds to AT, causing a change in the conformation of AT to a form that binds to and sequesters the activity of FXa. Addition of a peptide that competes with AT for heparin will increase the concentration of free FXa. Thus, restoration of the activity of FXa, as indicated by the amount of S-2222 converted to peptide and pNA, provides a measure of the ability of a peptide to neutralize the anticoagulant activity of heparin (provided in technical sheet of Instrumentation Laboratory).
The assay method was calibrated using standard solutions that contain 0.1 μg/mL of AT and heparin at concentrations ranging from 0.01 to 0.07 μg/mL in buffer/normal human plasma supplied with the Coatest kit. The standard solutions were incubated at 37° C. for 3-4 minutes, after which 100 μL of bovine factor Xa (0.71 nkat) were added to 200 μL of each standard solution. The mixtures were incubated at 37° C. for 30 sec, after which 200 μL of S-2222 (0.2 μmol, 37° C.) were added and the reaction mixtures were incubated at 37° C. for exactly 3 minutes. […] The absorbance was measured at 405 nm. The ability of CLC1 and CLC2 to neutralize the anticoagulant activity of heparin was determined by addition of each polymer to heparin solution, and the assay performed as described above. […]

LMWH = test: Neutralization of LMWH in human plasma measuring factor Xa (chromogenic Coatest Heparin); assay type: biochemical; details: LMWH and antidote 0.4 μg/mL each, human plasma 15 min 37°C
Description: as §1, with “2b. […]” for “2b.”
The assay method was calibrated using standard solutions that contain 0.1 μg/mL of AT and heparin at concentrations ranging from 0.01 to 0.07 μg/mL in buffer/normal human plasma supplied with the Coatest kit. […] The absorbance was measured at 405 nm. The ability of CLC1 and CLC2 to neutralize the anticoagulant activity of heparin was determined by addition of each polymer to heparin solution, and the assay performed as described above.
The complexation of the synthetic polymers of formula (I) with low molecular weight heparin (LMWH) was assessed in vitro in the same experimental conditions as for UFH, thus using a concentration of heparin and polymers of formula (I) of 0.4 μg/mL. After their incubation of 15 minutes at 37° C., the remaining activity of factor Xa is recorded with the chromogenic assay Coatest Heparin.

UFH [4] = test: Neutralization of UFH in whole blood of patients heparinized in vivo (extracorporeal circulation), aPTT test; assay type: biochemical, human
Description: In example 10, several (co-)polymers of formula (I), namely two linear homopolymers of PDMAEMA (samples CS023 and CK169) and two copolymers of PDMAEMA and PEO (samples A61 and BA003) were tested for neutralization of UFH injected on human patients subjected to ExtraCorporeal Circulation (ECC) during a cardiovascular surgical operation. According to the general practice in this clinical context, a fixed dose of 3 mg/kg of UFH is administrated to these patients by intravenous injection.
10 min after this dose injection of UFH, 40 ml of whole blood were collected from the patients. In vitro UFH neutralization was conducted less than 1 hour after blood collection adding one of the (co-)polymers listed in Table 7. The concentration of these polymers ranged from 3.4 to 45 μg/mL in whole blood. A special care was taken during the addition of (co-)polymer solutions in view to ensure a rapid and reproducible homogenization of these (co-)polymers in whole human blood (rapid injection of the solution in whole human blood, i.e. in less than 1 s), followed directly by 3 up-and-down aspirations to avoid any risk of local over-concentrations.
After a 15 minutes incubation period performed at 37° C. under lateral agitation the aPTT test was carried out immediately in order to determine the residual UFH activity. The neutralization effectiveness of the different homopolymers and copolymers and of protamine was estimated from the determination of CMax, i.e. the minimal polymer concentration giving rise to a maximum neutralization of UFH. Therapeutic index (Thind) of the (co-)polymers was established as the drug concentration window giving a pharmacological effect without impairing the coagulation pathways. The mean and standard deviations corresponding to these 3 parameters were calculated from 4 independent experiments performed on senior blood patients.

UFH [5] = test: Dose-response UFH neutralization in whole human blood, aPTT test; assay type: biochemical; details: Table 4, UFH 2 μg/mL whole blood
Description: In Example 9 several (co-)polymers of formula (I) were tested for neutralization of UFH in whole blood. Dose-response curves were established adopting a fixed concentration of 2 μg/mL UFH added in whole blood collected on sodium citrate. Five minutes after this preconditioning step, UFH neutralization was conducted by adding one of the (co-)polymers listed in Table 4 to 6. The concentration of these polymers was varied from 0.5 to 4 μg/mL in—whole blood. A special care was taken during the addition of the (co-)polymer solution in view to assure a rapid and reproducible homogenization of this solution in whole blood (rapid injection of solution in whole blood, i.e. in less than 1 s), followed directly by 3 up-and-down aspirations to avoid any risk of local over-concentrations. The total dilution arising from the UHF and polymer solutions represents only 10% to avoid any interference with coagulation pathways.
After a 15 minutes incubation period performed at 37° C. under lateral agitation the aPTT test was carried out immediately afterwards in order to determine the residual UFH activity. […] The mean and standard deviations were calculated from two independent experiments performed on senior blood donors initially collected under sodium citrate.

IC50 (UFH [5]; polymer concentration leading to 50% of maximal capacity to neutralize UFH): 1.05 µg/mL
Substance: Protamine
concentration at the maximum of the heparin neutralization curve (UFH [1]): around 1.6 μg/mL
percentage of neutralization of heparin (UFH [2]; 15 minutes after addition of the polymers, human plasma (FIG. 4)): 75%
percentage of neutralization of UFH, mean (UFH [2]; Group 1 donors (average age 22 years)): 75.0%
percentage of neutralization of UFH, mean (UFH [2]; Group 2 donors (average age 52 years)): 76.1%
percentage of inhibition of factor Xa, mean (UFH [3]; Test number 1): 88.1%
percentage of inhibition of factor Xa, mean (UFH [3]; Test number 2): 100.0%
mean inhibition of factor Xa (UFH [3]; mean of two independent experiments): 94.0%
percentage of inhibition of factor Xa (inhibition of heparin), mean (LMWH): 31.0%
aPTT at CMax (UFH [4]; blood of patients given 3 mg/kg UFH): 42.7 s
CMax (UFH [4]; minimal polymer concentration giving maximum neutralization of UFH, patients given 3 mg/kg UFH): 22.5 µg/mL
aPTT response (UFH [4]; protamine concentration of 45 μg/mL): below 70 s
CMax (UFH [5]; minimal polymer concentration giving saturation in UFH neutralization): 3.00 µg/mL
